Data taken from US20060135785A1, “Alpha-phenyl acetanilide derivatives having an acat inhibiting activity and the therapeutic application thereof” (Pierre Fabre Medicament, priority 2002, published 2006).
Where two headings read alike, the source gives them in different places.

Legend:
[1] = tested on: plasma cholesterol; assay: Blood cholesterol-lowering activity in rats on hypercholesterolemic diet; format: in vivo, rat; conditions: male rats, Altromin C 1061 hypercholesterolemic diet 4 days, dose that reduces the plasma cholesterol concentration by half compared with control animals
Method: Male rats (160-180 g) were subjected, for 4 days, to an Altromin C 1061 hypercholesterolemic diet and treated in parallel orally with the compounds in suspension in a solution of 2% Tween 80 in distilled water.
On the 5th day, the animals not fasting are anaesthetized with ethyl ether, and bled out on EDTA via the abdominal aorta. The blood is immediately centrifuged and the plasma is stored at 4° C.
The plasma cholesterol is then assayed by the CHOD-PAP method (Boehringer Mannheim Ref. 237574). The 50% effective dose (ED50) corresponds to the dose that reduces the plasma cholesterol concentration by half compared with control animals.

[2] = Rattus norvegicus, po, 96 h, read-out: ED50

Structure (SMILES)	melting point	ED50 ([1]; oral)	ED50 [1, 2]
CCCCCCCCCCCCn1nnc(C(F)(C(=O)Nc2c(C)c(C)c(N)c(C)c2C)c2ccccc2)n1.Cl (stereo not shown)	168 °C		
CCCCCCCCCCCCn1nnc(C(C(=O)Nc2cc(C)c(O)c(C)c2C)c2ccccc2)n1 (single isomer, unassigned; (+)) [Compound 5, (+)-2′,3′,5′-Trimethyl-4′-hydroxy-α-(2-dodecyl-2H-5-tetrazolyl)-α-phenylacetanilide]		0.025 mg/kg	
CCCCCCCCCCCCn1nnc(C(F)(C(=O)Nc2cc(C)c(O)c(C)c2C)c2ccccc2)n1 (single isomer, unassigned; (+)) [Compound 9, (+)-21,3′,5′-Trimethyl-4′-hydroxy-α-(2-dodecyl-2H-5-tetrazolyl)-α-fluoro-α-phenylacetanilide]			0.012 mg/kg
CCCCCCCCCCCCS(=O)(=O)[C@H](C(=O)Nc1cc(C)c(O)c(C)c1C)c1ccccc1 [Compound 1, (S)-2′,3′,5′-Trimethyl-4′-hydroxy-α-dodecylsulfonyl-α-phenylacetanilide]			0.25 mg/kg
CCCCCCCCCCCCS(=O)(=O)C(F)(C(=O)Nc1cc(C)c(O)c(C)c1C)c1ccccc1 (stereo not drawn) [Compound 3, 2′,3′,5′-Trimethyl-4′-hydroxy-α-dodecylsulfonyl-α-fluoro-α-phenylacetanilide]			0.022 mg/kg
CCCCCCCCCCCCn1nnc(C(C(=O)Nc2cc(C)c(O)c(C)c2C)c2ccccc2)n1 (stereo not drawn) [Compound 4, 2′,3′,5′-Trimethyl-4′-hydroxy-α-(2-dodecyl-2H-5-tetrazolyl)-α-phenylacetanilide]	105 °C		0.029 mg/kg
Cc1cc(NC(=O)C(F)(c2ccccc2)c2nnn(CCCCCCCCCCCC(F)F)n2)c(C)c(C)c1O (stereo not drawn) [Compound 10, 2′,3′,5′-Trimethyl-4′-hydroxy-α-[2-(12,12-difluoro-dodecyl)-2H-5-tetrazolyl]-α-fluoro-α-phenylacetanilide]	96 °C		0.029 mg/kg
CCCCCCCCCCCCS[C@H](C(=O)Nc1cc(C)c(O)c(C)c1C)c1ccccc1 [Eflucimibe, reference compound]			0.12 mg/kg
